Where two headings read alike, the source gives them in different places.
How the values were obtained:
[1] = cited from earlier work
DA₂ receptor = experiment: Goldberg femoral in vivo dog model (DA2 activity, intra-arterial)
Description: The compounds were subsequently tested following intra-arterial administration in an in situ renal and femoral arterial preparation in the dog, as developed by L.I. Goldberg, to test for DA1 and DA2 dopamine activity, respectively. Details of the methodology are provided in the European J. Pharmacol., 89:137, 1983, as well as in Hypertension, 6:1-25, 1984.
The compound was injected directly into the renal or femoral artery for analysis of DA₁ or DA₂ activity, respectively. […] The compound was tested for relative activity in comparison to the standard DA₁ agonist, dopamine or the standard DA₂ agonist, DPDA. Specific DA₁ or DA₂ activity of the tested compound was verified by Sch 23390 or domperidone blockade.
Adult mongrel dogs of either sex (11-20 kg) were anesthetized with pentobarbital sodium (33 mg/kg, i.v.). the animals were intubated and ventilated with room air using a Harvard respirator. […]
The optimal dose of compound was defined as that which produced a maximum increase in blood flow before causing a change in systemic blood pressure. Efficacy ratios were determined by division of the optimal response of the test compound by the optimal response of the standard agent. […] Potency ratios were the quotients calculated from the division of the standard agent ED₅₀ by the ED₅₀ of the test compound. […]

DA₁ receptor = experiment: Goldberg renal in vivo dog model (DA1 activity, intra-arterial); conditions: for Relative Efficacy to DA₁ Standard: optimal response divided by optimal response of dopamine
Description: The compounds were subsequently tested following intra-arterial administration in an in situ renal and femoral arterial preparation in the dog, as developed by L.I. […] Details of the methodology are provided in the European J. […] The compound was injected directly into the renal or femoral artery for analysis of DA₁ or DA₂ activity, respectively. […] Specific DA₁ or DA₂ activity of the tested compound was verified by Sch 23390 or domperidone blockade. Adult mongrel dogs of either sex (11-20 kg) were anesthetized with pentobarbital sodium (33 mg/kg, i.v.). the animals were intubated and ventilated with room air using a Harvard respirator. The abdominal aorta was catheterized with a Millar micro-tip (size: 5F) transducer via the right femoral artery for pressure monitoring. The right femoral vein was cannulated with PE-160 tubing for iv saline infusion, as well as, supplemental pentobarbital administration. The left renal artery was isolated through a lateral abdominal incision. An electromagnetic flowprobe of the appropriate size (9-12 mm circ) was placed around the artery and connected to a Carolina Medical electromagnetic flowmeter. Surface ECG leads were placed subcutaneously on the chest and limbs to monitor heart rate. A 25 gauge 3/4" needle bent 90°, 4 mm from the tip, was placed in the renal artery proximal to the probe and connected to an infusion pump delivering saline at a constant rate of 1 ml/min. […] Blood pressure was maintained by supplemental saline (10-20 ml/kg, iv). Bradykinin, a standard for nonspecific vasodilation, was given at 0.62 nmole doses, in 0.2 ml saline, i.a., prior to generating a dose response curve for dopamine in which 4-fold increase doses, ranging from 3 to 48 nmoles, were injected i.a. in 0.2 ml of saline. Test compound was injected similarly in 4-fold increasing doses up to a maximum of 3000 nmoles. […] The optimal dose of compound was defined as that which produced a maximum increase in blood flow before causing a change in systemic blood pressure. Efficacy ratios were determined by division of the optimal response of the test compound by the optimal response of the standard agent. ED₅₀ values were derived by regression analysis from individually generated dose response curves. Potency ratios were the quotients calculated from the division of the standard agent ED₅₀ by the ED₅₀ of the test compound.

[2] = test system: spontaneously hypertensive rat (SHR); experiment: Diuretic activity in saline-loaded spontaneously hypertensive rat; assay type: in vivo
Description: Additionally, these compounds were examined for diuretic activity for 6 hours following oral compound administration in the saline-loaded spontaneously hypertensive rat (SHR). Methods for this assay have been previously described (Rosenkranz, et al, Proc. West. Pharmacol. Soc. 28:87, 1985). The diuretic and natriuretic effects elicited by these compounds were characterized by an immediate onset of action.
Male spontaneously hypertensive SHR/NCr1BR rats weighing 320-430 gms were divided into four groups of seven animals. All animals were food- and water-deprived overnight. The following morning, each group of rats was hydrated with deionized water (20 ml/kg, po) forty-five minutes prior to the administration of vehicle or the test compound (R₁ and R₂ = H; X = (CH₂)n, m = 6).
Following vehicle or drug, the rats were placed in individual metabolic units. Fifteen minutes post-dose the animals were saline-loaded (30 ml/kg, po). Urine was collected at 1, 3 and 6 hour intervals post-saline-load. Urine volumes were measured and sodium and potassium levels were determined by flame photometry.
A two-way analysis of variance with time, treatment and their interaction was run as a repeated measures analysis. A secondary model of one-way analysis of variance (by time) was run using specified contrasts. The p-values for the contrasts were adjusted using Fisher's LSD strategy at each time point.

[3] = test system: spontaneously hypertensive rats; experiment: Oral antihypertensive activity in conscious restrained spontaneously hypertensive rat; assay type: in vivo
Description: The compounds of this invention were screened for oral antihypertensive activity in the conscious restrained rat. Adult male SHR were instrumented for blood pressure and heart rate measurements under light ether anesthesia. The animals were maintained on a plexiglass restraining board following surgery, and were allowed a 1 hour recovery period prior to the oral administration of the test compounds.
Male spontaneously hypertensive rats, SHR/NVr1Br (320-410 g) were fasted overnight. The following morning the left femoral artery and vein of each rat was cannulated under light ether anesthesia. following surgery, the rats were placed on a rat restraining board and allowed to recover from the effects of the ether for 1 hour. ECG leads were placed on the animal's chest to monitor heart reate. Animals were divided into groups of 4 and dosed with the test compound (R₁ and R₂ = H; X = (CH₂)m; m = 6).
Blood pressure and heart rate readings were taken at 5 minute intervals for the first 15 minutes and every 15 minutes thereafter for a duration of 4 hour post-compound administration. Data was evaluated by two-tailed paired t-tests.

Rats = experiment: 7-day toxicity in rats; assay type: in vivo; conditions: 30 and 100 mg/kg once a day for 7 days
Description: Rats were administered compound I (R₁ and R₂ = H; X = (CH₂)m; m = 6; R,R isomer) in doses of 30 and 100 mg/kg once a day for 7 days.

Cl.NCCc1ccc(O)c(O)c1 [DOPAMINE HYDROCHLORIDE, 3,4-Dihydroxyphenethylamine Hydrochlorid]
Solubility ([1]; in alcohol): soluble
Solubility ([1]; in chloroform and ether): practically insoluble
Solubility ([1]; in water): Freely soluble

CCCN(CCC)CCc1ccc(O)c(O)c1 [DPDA, di-propyl dopamine]
ED₅₀ (DA₂ receptor; femoral blood flow increase, injection into femoral artery, anesthetized dog): 1.00 nmol
Relative Efficacy to DA₂ Standard (DA₂ receptor; optimal response divided by optimal response of DPDA): 1.00

NCCc1ccc(O)c(O)c1 [Dopamine, 3-hydroxytyramine]
Relative Efficacy to DA₁ Standard (DA₁ receptor): 1.00

Oc1ccc(C[C@H]2CCCN2CCCCCCN2CCC[C@@H]2Cc2ccc(O)c(O)c2)cc1O [Test Compound, R,R-1,6-bis[2-(3,4-dihydroxybenzyl)pyrrolidin-1-yl]hexane]
Relative Potency to DA₁ Standard (DA₁ receptor; ED50 of dopamine divided by ED50 of test compound): 11.71
Relative Efficacy to DA₁ Standard (DA₁ receptor): 1.05
ED₅₀ (DA₁ receptor; renal blood flow increase, injection into renal artery, anesthetized dog, phenoxybenzamine pretreated): 0.63 nmol
urine and sodium retention ([2]; 3 mg/kg, po, urine at 1 hour, sodium at 1 and 3 hours): significant urine and sodium retention
diuresis and natriuresis ([2]; 10 mg/kg oral, one hour post administration): significant diuresis and natriuresis
diuresis and natriuresis ([2]; 30 mg/kg, 1, 3 and 6 hours post-dose): diuresis and natriuresis (p<0.05) were observed
kaliuresis ([2]; 30 mg/kg, po, 1 and 3 hour post-dose): significant kaliuresis
HR increase ([3]; 3 mg/kg): 6%
duration of HR increase ([3]; 3 mg/kg): 90 min
HR max. response ([3]; 10 mg/kg, decrease, p<0.05): -14%
duration of HR decrease ([3]; 10 mg/kg, post-compound administration): 1 h
HR change ([3]; 30 mg/kg): did not elicit any biologically significant changes in HR
MBP change ([3]; 3, 10 and 30 mg/kg): significant decrease in MBP
Peak decreases in MBP ([3]; across 3, 10 and 30 mg/kg): -17 to -22%
duration of action (MBP decrease) ([3]; across 3, 10 and 30 mg/kg): 15 to 210 min
treatment related changes in clinical condition, body weight, or food intake (Rats): No treatment related changes were noted

Source: patent publication EP0404115A1, “Bis(benzylpyrrolidine)Derivatives as dopamine agonists” (SYNTEX (U.S.A.) INC., priority 1989, dated 1990)
